# Reference: patent US20200207989A1, “FLUORESCENT PROBE FOR ALDH3A1 DETECTION” (The University of Tokyo, priority 2016, published 2020)
# Columns and labels:
# [1] = target: T1, ALDH1A3 (Homo sapiens, UniProt P47895); assay: Reactivity of probes to recombinant ALDH1A3 (UPLC/MS/MS); format: biochemical; conditions: 10-100 nM ALDH, 10-80 μM compound, Tris buffer pH 7.5, 30 minutes at 37° C., ◯/X not defined by a legend
# T1 construct: purchased
# T1 sequence (P47895 1-512): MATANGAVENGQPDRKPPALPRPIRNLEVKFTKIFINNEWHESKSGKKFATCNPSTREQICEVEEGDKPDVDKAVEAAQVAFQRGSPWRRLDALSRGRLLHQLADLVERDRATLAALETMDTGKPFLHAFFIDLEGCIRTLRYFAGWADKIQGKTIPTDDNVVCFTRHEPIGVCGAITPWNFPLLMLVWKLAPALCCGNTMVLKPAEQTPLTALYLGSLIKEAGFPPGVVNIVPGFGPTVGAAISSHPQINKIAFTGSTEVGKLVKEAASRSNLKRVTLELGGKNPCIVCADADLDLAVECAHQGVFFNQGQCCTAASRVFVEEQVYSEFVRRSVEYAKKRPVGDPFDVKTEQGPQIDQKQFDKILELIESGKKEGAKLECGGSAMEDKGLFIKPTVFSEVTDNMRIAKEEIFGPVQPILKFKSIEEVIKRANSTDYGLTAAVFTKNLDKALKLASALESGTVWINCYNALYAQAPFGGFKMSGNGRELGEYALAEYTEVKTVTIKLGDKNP
# Description: (§1) Human recombinant ALDH1A1/1A3/3A1 was purchased, and 100 mM of KCL, 2 mM of DTT, 1 mM of NAD(P), 10-100 nM of each ALDH, and 10-80 μM of each compound were mixed in Tris buffer (100 mM, pH 7.5), reacted for 30 minutes at 37° C., an equal amount of acetonitrile added, and the reaction stopped. The reaction solution was analyzed by UPLC/MS/MS (Waters). The UPCL chromatogram was carried out over five minutes at a flow rate of 800 μL/min by a linear gradient from 5% acetonitrile 0.01 M ammonium formate/water to 95% acetonitrile 0.01 M ammonium formate/water.
# [2] = target: T2, ALDH3A1 (Homo sapiens, UniProt P30838); assay: Kinetic characteristics (Michaelis-Menten Km, Kcat) with ALDH3A1; format: biochemical
# T2 construct: purchased
# T2 sequence (P30838 1-453): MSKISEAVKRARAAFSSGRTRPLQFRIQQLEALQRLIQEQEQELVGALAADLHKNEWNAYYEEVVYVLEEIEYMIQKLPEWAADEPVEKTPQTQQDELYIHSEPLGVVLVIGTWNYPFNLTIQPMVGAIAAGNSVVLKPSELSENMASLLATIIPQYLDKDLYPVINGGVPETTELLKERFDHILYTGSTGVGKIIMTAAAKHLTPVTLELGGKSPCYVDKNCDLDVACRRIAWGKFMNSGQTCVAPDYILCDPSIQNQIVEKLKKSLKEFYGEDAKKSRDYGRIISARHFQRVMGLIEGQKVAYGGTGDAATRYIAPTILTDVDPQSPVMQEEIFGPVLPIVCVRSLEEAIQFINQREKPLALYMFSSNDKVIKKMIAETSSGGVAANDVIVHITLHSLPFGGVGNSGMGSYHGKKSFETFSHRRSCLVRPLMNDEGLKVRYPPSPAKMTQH
# Description: as §1, with “formate/water. An aldehyde-form and carboxylic acid-form probe were detected by the absorbance at a wavelength of 504 nm, and m/z of the MS spectrum at each peak was confirmed to agree with the expected m/z.” for “formate/water.”
# For the reaction, 100 mM of KCL, 2 mM of DTT, 1 mM of NAD(P), and five to six concentrations within the range of 10-100 nM of each ALDH and 0.1-80 μM of each probe were selected, mixed in Tris buffer (100 mM, pH 7.5), and reacted for five minutes at 37° C.; an equal amount of acetonitrile was added, and the reaction was stopped. Detection of the aldehyde-form/carboxylic acid-form probes was carried out using the same method as described above by UPLC/MS/MS. Km and Kcat were calculated by fitting the reaction rate at each probe concentration obtained to the Michaelis-Menten equation. A Kaleida Graph ver. 4.1 (Hulinks, Inc.) was used in fitting.
# The Kcat ratio (Kcat of ALDH3A1/Kcat of ALDH1A1) was calculated for probe 1, probe 3, and probe 5 as an indicator of ALDH1A1/ALDH3A1 specificity because the probe reaction rate at the actual probe use concentration is believed to be close to Vmax since Km is relatively small (Table 5).
# [3] = five minutes at 37° C., Tris buffer pH 7.5
substance,measurement,setting,value
"N-(4-formylbenzyl)-3-(1,3-dimethyl-4,4-difluoro-4-bora-3a,4a-diaza-s-indacen-5-yl)-propionamide [Probe 1]",Reactivity to ALDH1A3,[1],◯
same,Reactivity to ALDH1A3,[1]; listed as Compound 1,reacted with all three of the isoforms tested
same,Kcat ALDH3A1,[2]; [3],1.12 ± 0.08 s⁻¹
same,Km,[2]; [3],58.9 ± 7.6 µM
same,Kcat ratio (Kcat of ALDH3A1/Kcat of ALDH1A1),[2]; indicator of ALDH1A1/ALDH3A1 specificity,0.8
